Read-outs that look alike come from different tables or passages of the source. Blank lines part the entries; values can stand above or below the molecule they belong to.
Key:
MCR-4 = target: T1, MCR-4 (Homo sapiens, UniProt P32245); assay: Melanocortin receptor binding assay, competition with 125I-HP 467, HEK 293 cells expressing hMCR-4; conditions: for IC50: read-out: MC-4 IC50
T1 construct: expressed in transfected cells; host or cells: HEK 293
In short: (§1)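 Intact-cell competition binding, 2.5 hr at 37 °C, in PBS/10% calf serum/1 mM CaCl2; hMCR-4 cells at 4×10^3 per tube, hMCR-1 cells at 2×10^4 per tube. Filtration on BSA/CaCl2-soaked GF/B, cold 50 mM Tris pH 7.4 washes, scintillation count.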

MCR-1 = target: T2, MCR-1 (Homo sapiens, UniProt Q01726); assay: Melanocortin receptor binding assay, competition with 125I-HP 467, HEK 293 cells expressing hMCR-1; conditions: for IC50: read-out: MC-1 IC50
T2 construct: expressed in transfected cells; host or cells: HEK 293
T2 sequence (Q01726 whole entry): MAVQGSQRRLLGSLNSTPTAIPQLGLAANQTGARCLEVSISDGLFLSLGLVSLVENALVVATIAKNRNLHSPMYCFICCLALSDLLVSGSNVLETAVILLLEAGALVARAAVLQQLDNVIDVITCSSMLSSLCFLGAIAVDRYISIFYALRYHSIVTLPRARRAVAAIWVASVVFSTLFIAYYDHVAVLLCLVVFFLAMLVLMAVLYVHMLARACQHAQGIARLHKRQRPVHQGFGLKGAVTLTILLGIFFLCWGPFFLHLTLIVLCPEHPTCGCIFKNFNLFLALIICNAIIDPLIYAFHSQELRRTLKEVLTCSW
In short: as §1

[1] = TRG 2408 and TRG 2409 libraries, inhibition of 125I-HP 467 binding
[2] = inhibition of binding of 125I-HP 467, HEK 293 cells expressing MCR-4
[3] = inhibition of binding of 125I-HP 467, HEK 293 cells expressing MCR-1
[4] = competition with 125I-HP 467, HEK 293 cells expressing MCR-4
[5] = competition with 125I-HP 467, HEK 293 cells expressing MCR-1
[6] = TRG 2414 library, inhibition of binding of 125I-HP 467, HEK 293 cells expressing MCR-4
[7] = TRG 2414 library, inhibition of binding of 125I-HP 467, HEK 293 cells expressing MCR-1
[8] = TRG 2406 and TRG 2407 libraries, inhibition of binding of 125I-HP 467
[9] = inhibition of binding of 125I-HP 467, HEK 293 cells expressing MCR-4, TRG 2414 library
[10] = inhibition of binding of 125I-HP 467, HEK 293 cells expressing MCR-1, TRG 2414 library

T1 sequence (P32245 whole entry): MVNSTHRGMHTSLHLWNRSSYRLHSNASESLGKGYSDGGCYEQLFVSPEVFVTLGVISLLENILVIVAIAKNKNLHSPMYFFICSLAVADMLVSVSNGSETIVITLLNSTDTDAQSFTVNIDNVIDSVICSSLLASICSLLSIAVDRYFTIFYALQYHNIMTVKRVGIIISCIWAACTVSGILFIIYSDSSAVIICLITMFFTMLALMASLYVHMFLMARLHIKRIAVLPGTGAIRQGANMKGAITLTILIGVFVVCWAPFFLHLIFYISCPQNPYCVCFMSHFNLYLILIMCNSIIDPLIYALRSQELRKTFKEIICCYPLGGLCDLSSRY

Structure (SMILES): CNC(CN)CCN1Cc2ccccc2C(CNC2CCCCC2)C1c1ccc(-c2ccccc2)cc1 (stereo not shown) [TRG 2408-110]
IC50 (MCR-4; [1]): 9010 nM
IC50 (MCR-1; [1]): 5370 nM

Structure (SMILES): COc1ccc(CCNCC2c3ccccc3CN(CCCCC(CN)NCc3ccc(-c4ccccc4)cc3)C2c2cc(C(F)(F)F)cc(C(F)(F)F)c2)cc1 (stereo not shown) [TRG 2421-15]
IC50 (MCR-4; [2]): 7600 nM
IC50 (MCR-1; [3]): 7810 nM

Structure (SMILES): CCCCNc1ccc(C2C(CNCCc3ccccc3)c3ccccc3CN2CCCCC(CN)NCCCC)cc1 (stereo not shown) [TRG 2411-75]
IC50 (MCR-4; [4]): 1050 nM
IC50 (MCR-1; [5]): 130 nM

Structure (SMILES): CCNc1ccc(C2C(CNCCc3ccccc3)c3ccccc3CN2CCCCC(CN)NCCc2ccccc2)cc1 (stereo not shown) [TRG 2411-40]
IC50 (MCR-4; [4]): 1000 nM
IC50 (MCR-1; [5]): 190 nM

Structure (SMILES): COc1ccc(CNCC2c3ccccc3CN(CCCCC(CN)NCC(C)c3ccc(CC(C)C)cc3)C2c2ccccc2Br)cc1 (stereo not shown) [Cmpd 224]
IC50 (MCR-4; [6]): 22700 nM
IC50 (MCR-1; [7]): 31500 nM

Structure (SMILES): CCNc1ccc(C2C(CNc3cccc(Cl)c3)c3ccccc3CN2CCCCC(CN)NC)cc1 (stereo not shown) [TRG 2407-45]
IC50 (MCR-4; [8]): 11000 nM
IC50 (MCR-1; [8]): 7910 nM

Structure (SMILES): NCC(CCCCN1Cc2ccccc2C(CNC2CCCCC2)C1c1ccccc1Br)NCc1ccccc1 (stereo not shown) [Cmpd 239]
IC50 (MCR-4; [6]): 6270 nM
IC50 (MCR-1; [7]): 3300 nM

Structure (SMILES): CNCCNC(CN)CCCCN1Cc2ccccc2C(CN)C1c1ccc(-c2ccccc2)cc1 (stereo not shown) [TRG 2411-26]
IC50 (MCR-4; [4]): 6170 nM
effectiveness as MC receptor ligand (MCR-1; binding to MC receptors, Table 1): particularly effective MC receptor ligands
IC50 (MCR-1; [5]): 90 nM

Structure (SMILES): COc1ccc(CNCC2c3ccccc3CN(CCCCC(N)CN)C2c2ccc(Oc3ccccc3)cc2)cc1 (stereo not shown) [Cmpd 271]
MC-4 IC50 (MCR-4; [6]): no fit
MC-1 IC50 (MCR-1; [7]): no fit

Structure (SMILES): NCCN1Cc2ccccc2C(CNCc2ccccc2O)C1c1cccc(Oc2ccc(Cl)c(Cl)c2)c1 (stereo not shown) [TRG 2406-2]
IC50 (MCR-4; [8]): 3860 nM
IC50 (MCR-1; [8]): 7860 nM

Structure (SMILES): CCNc1ccc(C2C(CNCCc3ccccc3)c3ccccc3CN2CCCC(CN)NCCOCCNC(C)C)cc1 (stereo not shown) [TRG 2420-9]
IC50 (MCR-4; [2]): 3230 nM
IC50 (MCR-1; [3]): 40 nM

Structure (SMILES): CNC(CN)CCCCN1Cc2ccccc2C(CNC2CCCCCC2)C1c1ccc(Cl)cc1Cl (stereo not shown) [TRG 2407-29]
IC50 (MCR-4; [8]): 770 nM
IC50 (MCR-1; [8]): 640 nM

Structure (SMILES): CCNc1ccc(C2C(CNc3ccc(OC)cc3)c3ccccc3CN2CCCCC(CN)NC)cc1 (stereo not shown) [TRG 2407-49]
MC-4 IC50 (MCR-4; [8]): no fit
IC50 (MCR-1; [8]): 2360 nM

Structure (SMILES): NCC(CCN1Cc2ccccc2C(CNC2CCCCC2)C1c1ccc(Cl)cc1Cl)NCCc1ccccc1 (mixture of isomers) [TRG 2408-102]
IC50 (MCR-4; [1]): 1880 nM
IC50 (MCR-1; [1]): 7050 nM

More lines, now with the values ahead:

IC50 (MCR-4; [2]): 9590 nM
IC50 (MCR-1; [3]): 70 nM
Structure (SMILES): CCCCNc1ccc(C2C(CN)c3ccccc3CN2CCCC(CN)NCC)cc1 (stereo not shown) [TRG 2411-218]

IC50 (MCR-4; [9]): 720 nM
IC50 (MCR-1; [10]): 1900 nM
Structure (SMILES): NCC(N)CCCCN1Cc2ccccc2C(CNC2CCCCCC2)C1c1ccc(Cl)cc1Cl (mixture of isomers) [TRG 2414-33]

IC50 (MCR-4; [2]): 350 nM
IC50 (MCR-1; [3]): 100 nM
Structure (SMILES): CCNc1ccc(C2C(CNCCc3ccccc3)c3ccccc3CN2CCCC(CN)NCc2ccc(Cl)cc2)cc1 (stereo not shown) [TRG 2411-159]

IC50 (MCR-4; [4]): 1050 nM
IC50 (MCR-1; [5]): 100 nM
Structure (SMILES): CCCCNc1ccc(C2C(CN)c3ccccc3CN2CCCCC(CN)NCCc2ccc3ccccc3c2)cc1 (stereo not shown) [TRG 2411-110]

MC-4 IC50 (MCR-4; [9]): no fit
MC-1 IC50 (MCR-1; [10]): no fit
Structure (SMILES): COc1ccc(CNCC2c3ccccc3CN(CCCCC(CN)NCC(C)c3ccc(CC(C)C)cc3)C2c2ccc(Oc3ccccc3)cc2)cc1 (stereo not shown) [TRG 2414-144]

IC50 (MCR-4; [9]): 6830 nM
IC50 (MCR-1; [10]): 468 nM
Structure (SMILES): CCCOc1ccc(C2C(CNCc3ccc(OC)cc3)c3ccccc3CN2CCCCC(N)CN)cc1 (stereo not shown) [TRG 2414-181]

IC50 (MCR-4; [9]): 50600 nM
MC-1 IC50 (MCR-1; [10]): no fit
Structure (SMILES): CC(C)Cc1ccc(C(C)CNC(CN)CCCCN2Cc3ccccc3C(CNCCc3cccc(Cl)c3)C2c2cccc(Oc3ccccc3)c2)cc1 (stereo not shown) [TRG 2414-96]

IC50 (MCR-4; [9]): 5060 nM
IC50 (MCR-1; [10]): 994 nM
Structure (SMILES): CCCOc1ccc(C2C(CNCc3ccccc3OCC)c3ccccc3CN2CCCCC(N)CN)cc1 (mixture of isomers) [TRG 2414-165]

IC50 (MCR-4; [9]): 45400 nM
IC50 (MCR-1; [10]): 34500 nM
Structure (SMILES): COc1ccc(CNCC2c3ccccc3CN(CCCCC(CN)NCC(C)c3ccc(CC(C)C)cc3)C2c2cc(C(F)(F)F)cc(C(F)(F)F)c2)cc1 (stereo not shown) [TRG 2414-64]

IC50 (MCR-4; [4]): 1960 nM
IC50 (MCR-1; [5]): 960 nM
Structure (SMILES): NCC(CCCN1Cc2ccccc2C(CN)C1c1ccc(-c2ccccc2)cc1)NCC1CCCCC1 (stereo not shown) [TRG 2411-148]

From patent publication US6608082B1, “Treatment of erectile dysfunction using isoquinoline compound melanocortin receptor ligands” (Lion Bioscience AG, priority 1998, dated 2003)
